We go through two molecules from PubChem BioAssay (NCI).

Molecules are shown by their SMILES.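 Where inhibition never reached the appropriate level, the endpoint shown equals the highest concentration tested. Otherwise, values were interpolated linearly from a five-concentration, 48-hour dose response in 96-well plates. TGI marks complete inhibition of growth.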 Bounds are passed on as bounds.

Holding throughout (assay): NCI tumour cell line growth inhibition, 48 h
The test system of assay [1] is HL-60(TB) leukemia.
The test system of assay [2] is OVCAR-4 ovarian.
The subject of assay [3] is KM12 colon.
Assay [4] concerns TK-10 renal.
In assay [5] the test system is U251 CNS.
In assay [6] the test system is K-562 leukemia.
In assay [7] the test system is IGROV1 ovarian.
Assay [8] deals with OVCAR-3 ovarian.
For assay [9], the system named is A549 NSCLC.
The subject of assay [10] is RXF-631 renal.
Assay [11] concerns MCF7 breast.
Assay [12] deals with SF-295 CNS.
Assay [13] deals with SF-539 CNS.
Assay [14] concerns MALME-3M melanoma.
For assay [15], the system named is A498 renal.
The subject of assay [16] is PC-3 prostate.
Assay [17] concerns RPMI-8226 leukemia.
Assay [18] concerns SN12C renal.
The test system of assay [19] is RXF 393 renal.
Assay [20] relates to UACC-62 melanoma.

`COc1ccc2nc3ccccc3c(NCCCCCCN(CCCl)CCCl)c2c1`: the TGI is 0.592 µM in [1]; 1.05 µM in [2]; 1.14 µM in assay [3]; 23.8 µM in assay [4]; 1.57 µM in [5]; over 18.5 µM in [6]. Also, the TGI stood at 3.85 µM in assay [7]; 3.14 µM in assay [8]; 6.06 µM in [9]; 1.96 µM in [10]; 0.157 µM in [11]; 1.01 µM in [12].
For `N=C(N)c1ccc(N=Nc2c(O)ccc3c2[nH]c2ccccc23)cc1`, the TGI in assay [13] was over 100 µM; in [14], over 80.8 µM; in assay [1] it was over 100 µM; in assay [2], over 28.5 µM; in [15], over 100 µM; in assay [4] it was over 95.3 µM. In addition, the TGI was over 60.3 µM in [16]; 5.07 µM in assay [17]; over 83.4 µM in [18]; over 100 µM in assay [19]; over 100 µM in [20]; 4.02 µM in assay [6]. Moreover, the values for the TGI in [7], in assay [8] and in assay [12] were over 100 µM, 5.67 µM and over 84.4 µM, respectively.
